Measurements: US20230339851A1, “CXCR6 SULFONAMIDE COMPOUNDS” (CHEMOCENTRYX, INC., priority 2022, published 2023)

Molecular target: T1, human CXCR6 (Homo sapiens, UniProt O00574)
T1 construct: expressed in transfected cells
Assay: Radioligand Binding Assay (125I-CXCL16 displacement)
Settings: L1.2 cells stably transfected with human CXCR6 cDNA, 0.1 nM 125I-CXCL16, 4° C., three-hour incubation; read-out: Potency (IC50)
Method: L1.2 cells stably transfected with human CXCR6 cDNA ([…]) were incubated at 4° C. in HBSS containing 0.1 % BSA and 0.1 nM of ^125I-CXCL16 plus various concentrations of Compound. Following a three-hour incubation period, cells were aspirated onto polyethyleneimine-treated GF/B glass fiber filters (PerkinElmer, Waltham, MA) with a cell harvester (Tomtec, Hamden, CT) and washed twice with washing buffer (25 mM Hepes, 500 mM NaCl, 1 mM CaCI2, 5 mM MgCI2, pH 7.1). Fifty µl of MicroScint-20 (PerkinElmer, Waltham, MA) was added to each well of the filters, and radioactive emissions (cpm) were measured on a Packard TopCount Scintillation counter (PerkinElmer, Waltham, MA). IC50 values were calculated with GraphPad Prism using 3 parameter nonlinear regression. […]

T1 sequence (O00574 whole entry): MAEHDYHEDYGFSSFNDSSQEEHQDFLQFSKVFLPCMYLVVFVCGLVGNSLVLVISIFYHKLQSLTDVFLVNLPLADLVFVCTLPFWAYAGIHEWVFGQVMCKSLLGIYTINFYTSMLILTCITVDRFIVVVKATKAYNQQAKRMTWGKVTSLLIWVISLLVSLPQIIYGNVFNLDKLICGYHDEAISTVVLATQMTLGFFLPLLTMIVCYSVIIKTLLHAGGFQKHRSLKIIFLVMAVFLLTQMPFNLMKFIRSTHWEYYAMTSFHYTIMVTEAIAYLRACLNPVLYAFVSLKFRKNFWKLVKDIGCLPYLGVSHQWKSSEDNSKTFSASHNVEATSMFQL

Structure (SMILES) | IC50
CCOc1cc(NC(=O)[C@@H](O)C(C)C)ccc1S(=O)(=O)Nc1cccc(C(C)(C)C)c1 [Example 1.277] | 200 to 750 nM
CCOc1cc(NC(=O)[C@H]2[C@H](C)COC[C@@H]2C)ccc1S(=O)(=O)Nc1cccc(OC(F)(F)F)c1 [Example 1.305] | ≤ 200 nM
CCOc1cc(NC(=O)[C@H]2CCOC[C@H]2C)ccc1S(=O)(=O)Nc1cccc(OC(F)(F)F)c1 (racemic) [Example 1.514] | ≤ 200 nM
CCOc1cc(NC(=O)C2CCC=C[C@@H]2O)ccc1S(=O)(=O)Nc1cccc(OC(F)(F)F)c1 (some centres unmarked) [Example 1.303] | ≤ 200 nM
CCOc1cc(NC(=O)C(C(=O)O)C2CCOC2)ccc1S(=O)(=O)Nc1cccc(OC(F)(F)F)c1 (centres unmarked) [Example 1.436] | ≤ 200 nM
CCOc1cc(NC(=O)C(O)Cc2ccccc2)ccc1S(=O)(=O)Nc1cccc(OC(F)(F)F)c1 (centres unmarked) [Example 1.182] | ≤ 200 nM
CCOc1cc(NC(=O)[C@@H](NC(=O)OC(C)(C)C)c2ccccc2)ccc1S(=O)(=O)Nc1cccc(OC(F)(F)F)c1 [Example 1.429] | 200 to 750 nM
CCOc1cc(NC(=O)[C@@H](CO)C(C)C)ccc1S(=O)(=O)Nc1ccc(F)c(OC(F)(F)F)c1 [Example 1.288] | ≤ 200 nM
CCOc1cc(NC(=O)C2CCOCC2(C)C)ccc1S(=O)(=O)Nc1cccc(OC(F)(F)F)c1 (centres unmarked) [Example 1.215] | 200 to 750 nM
CCOc1cc(NC(=O)[C@@H](NC=O)C(C)C)ccc1S(=O)(=O)Nc1cccc(OC(F)(F)F)c1 [Example 1.298] | ≤ 200 nM
CCOc1cc(NC(=O)C(CCO)c2ccccc2)ccc1S(=O)(=O)Nc1cccc(OC(F)(F)F)c1 (centres unmarked) [Example 1.047] | ≤ 200 nM
CCOc1cc(NC(=O)C(CC)C(=O)O)ccc1S(=O)(=O)Nc1cccc(OC(F)(F)F)c1 (centres unmarked) [Example 1.571] | ≤ 200 nM
CCOc1cc(NC(=O)[C@@H](O)c2ccccc2F)ccc1S(=O)(=O)Nc1cccc(OC(F)(F)F)c1 [Example 1.329] | ≤ 200 nM
CCOc1cc(NC(=O)[C@@H](CO)c2ccccc2)ccc1S(=O)(=O)Nc1ccc(C)c(F)c1 [Example 1.184] | 750 to 2000 nM
N#Cc1cc(NC(=O)[C@@H](CO)c2ccccc2)ccc1S(=O)(=O)Nc1cccc(OC(F)(F)F)c1 [Example 1.024] | ≤ 200 nM
CCOc1cc(NC(=O)[C@@H](CO)c2ccccc2)ccc1S(=O)(=O)Nc1cccc(Cl)c1OC [Example 1.190] | 2000 to 20000 nM
CCOc1cc(NC(=O)C2CCOCC2)ccc1S(=O)(=O)Nc1ccc(C)c(OC(F)(F)F)c1 [Example 1.123] | ≤ 200 nM

Structure (SMILES) | IC50
CCOc1cc(NC(=O)[C@H]2CC=CC[C@H]2C(=O)O)ccc1S(=O)(=O)Nc1cccc(OC(F)(F)F)c1 [Example 1.160] | ≤ 200 nM
CCOc1cc(NC(=O)C(CO)CC2CC=CCC2)ccc1S(=O)(=O)Nc1cccc(OC(F)(F)F)c1 (centres unmarked) [Example 1.428] | ≤ 200 nM
CCOc1cc(NC(=O)[C@@H](CO)c2ccccc2)ccc1S(=O)(=O)Nc1ccc(F)c(C)c1 [Example 1.405] | 200 to 750 nM
CCOc1cc(NC(=O)[C@@H]2CCCCC[C@@H]2O)ccc1S(=O)(=O)Nc1cccc(OC(F)(F)F)c1 [Example 1.404] | ≤ 200 nM
CCc1cc(NC(=O)C2CCOCC2)ccc1S(=O)(=O)Nc1cccc(OC(F)(F)F)c1 [Example 1.056] | ≤ 200 nM
CCOc1cc(NC(=O)[C@@H](O)C(C)C)ccc1S(=O)(=O)Nc1cccc(C(F)(F)F)c1F [Example 1.075] | 2000 to 20000 nM
CCOCCOCCC(C(=O)O)C(=O)Nc1ccc(S(=O)(=O)Nc2cccc(OC(F)(F)F)c2)c(OCC)c1 (centres unmarked) [Example 1.476] | 200 to 750 nM
CCOc1cc(NC(=O)[C@@H](O)C(C)C)ccc1S(=O)(=O)Nc1ccc(C)c(C(C)C)c1 [Example 1.445] | ≤ 200 nM
CCOc1cc(NC(=O)C(CCO)C(F)(F)F)ccc1S(=O)(=O)Nc1cccc(OC(F)(F)F)c1 (centres unmarked) [Example 1.335] | ≤ 200 nM
C=Cc1cc(NS(=O)(=O)c2ccc(NC(=O)[C@@H](CO)C(C)C)cc2OCC)ccc1C [Example 1.548] | ≤ 200 nM
CCOc1cc(NC(=O)[C@H]2CC(C)=C(C)C[C@@H]2CO)ccc1S(=O)(=O)Nc1cccc(OC(F)(F)F)c1 [Example 1.250] | ≤ 200 nM
CCOc1cc(NC(=O)[C@@H](NC(C)=O)C(C)C)ccc1S(=O)(=O)Nc1cccc(OC(F)(F)F)c1 [Example 1.415] | ≤ 200 nM
CCOc1cc(NC(=O)[C@@H](CO)C(C)C)ccc1S(=O)(=O)Nc1ccc(C)c(C(C)C)c1 [Example 1.057] | ≤ 200 nM
CCOc1cc(NC(=O)C2CCC(O)CC2)ccc1S(=O)(=O)Nc1cccc(OC(F)(F)F)c1 (centres unmarked) [Example 1.183] | 200 to 750 nM
CCOc1cc(NC(=O)[C@H]2CCOC[C@@H]2COC)ccc1S(=O)(=O)Nc1cccc(OC(F)(F)F)c1 (racemic) [Example 1.237] | 200 to 750 nM
CCOc1cc(NC(=O)[C@@H](CO)c2ccccc2)ccc1S(=O)(=O)Nc1cccc(Cl)c1Cl [Example 1.272] | 750 to 2000 nM

Next, values leading:

IC50 | Structure (SMILES)
≤ 200 nM | CC(C)[C@H](O)C(=O)Nc1ccc(S(=O)(=O)Nc2cccc(OC(F)(F)F)c2)c(Cl)c1 [Example 1.078]
2000 to 20000 nM | COCCC(=O)Nc1ccc(S(=O)(=O)Nc2cccc(C(F)(F)F)c2)c(OC)c1 [Example 1.423]
750 to 2000 nM | COc1cc(NC(=O)C2CCCCO2)ccc1S(=O)(=O)Nc1cccc(C(F)(F)F)c1 (centres unmarked) [Example 1.572]
≤ 200 nM | CCOc1cc(NC(=O)Cc2ccccc2)ccc1S(=O)(=O)Nc1cccc(OC(F)(F)F)c1 [Example 1.097]
≤ 200 nM | CCOc1cc(NC(=O)c2cc(=O)n(C)cc2C)ccc1S(=O)(=O)Nc1cccc(OC(F)(F)F)c1 [Example 1.126]
2000 to 20000 nM | CC(=O)Nc1ccc(S(=O)(=O)Nc2cccc(OC(F)(F)F)c2)c(C(C)C)c1 [Example 1.132]
≤ 200 nM | CCOc1cc(NC(=O)c2ccns2)ccc1S(=O)(=O)Nc1cccc(C(F)(F)F)c1 [Example 1.567]
750 to 2000 nM | Cc1cc(NC(=O)c2ccnn2C)cc(F)c1S(=O)(=O)Nc1cccc(C(F)(F)F)c1 [Example 1.520]
750 to 2000 nM | Cc1ccc(C(=O)Nc2ccc(S(=O)(=O)Nc3cccc(C(F)(F)F)c3)c(C)c2)cc1 [Example 1.251]
200 to 750 nM | CCOc1cc(NC(=O)C(=O)c2ccccc2)ccc1S(=O)(=O)Nc1cccc(OC(F)(F)F)c1 [Example 1.023]
2000 to 20000 nM | Cc1cc(NC(=O)c2c(Br)cnn2C)ccc1S(=O)(=O)Nc1cccc(C(F)(F)F)c1 [Example 1.284]
2000 to 20000 nM | COc1cc(NC(=O)[C@@H]2C=CCN2C(=O)OC(C)(C)C)ccc1S(=O)(=O)Nc1cccc(C(F)(F)F)c1 [Example 1.033]
2000 to 20000 nM | COc1cc(NC(=O)[C@@H]2CCC[C@@H]2N)ccc1S(=O)(=O)Nc1cccc(C(F)(F)F)c1 [Example 1.347]
750 to 2000 nM | COc1ccc(C(=O)Nc2ccc(S(=O)(=O)Nc3cccc(C(F)(F)F)c3)c(C)c2)cc1 [Example 1.136]
2000 to 20000 nM | Cc1cc(NC(=O)C2CCN(C(=O)OC(C)(C)C)CC2)ccc1S(=O)(=O)Nc1cccc(C(F)(F)F)c1 [Example 1.365]
200 to 750 nM | CCOc1cc(NC(=O)C(O)c2ccc(C(F)(F)F)cc2)ccc1S(=O)(=O)Nc1cccc(OC(F)(F)F)c1 (centres unmarked) [Example 1.278]
2000 to 20000 nM | CC(=O)Nc1cc(C)c(S(=O)(=O)Nc2cccc(C(F)(F)F)c2)c(C)c1 [Example 1.490]
200 to 750 nM | Cc1cc(NC(=O)c2ccccc2Cl)ccc1S(=O)(=O)Nc1cccc(C(F)(F)F)c1 [Example 1.292]

IC50 | Structure (SMILES)
750 to 2000 nM | COc1cccc(NS(=O)(=O)c2ccc(NC(=O)c3ccnn3C)cc2OC)c1 [Example 1.348]
2000 to 20000 nM | COc1cc(NC(=O)CC2CCCO2)ccc1S(=O)(=O)Nc1cccc(C(F)(F)F)c1 (centres unmarked) [Example 1.189]
200 to 750 nM | CCOc1cc(NC(=O)CC(O)c2nccs2)ccc1S(=O)(=O)Nc1cccc(OC(F)(F)F)c1 (centres unmarked) [Example 1.485]
≤ 200 nM | CCOc1cc(NC(=O)c2cc[nH]c(=O)c2)ccc1S(=O)(=O)Nc1cccc(OC(F)(F)F)c1 [Example 1.103]
2000 to 20000 nM | COc1cc(NC(=O)C2CCCCC2)ccc1S(=O)(=O)Nc1cccc(C(F)(F)F)c1 [Example 1.008]
200 to 750 nM | COc1cc(NC(=O)C2=C(C)OCCC2)ccc1S(=O)(=O)Nc1cccc(OC(F)(F)F)c1 [Example 1.525]
750 to 2000 nM | CCOc1cc(NC(=O)c2ccc(N(C)C)cc2)ccc1S(=O)(=O)Nc1cccc(OC(F)(F)F)c1 [Example 1.315]
≤ 200 nM | COc1cc(NC(=O)c2ccnn2C)ccc1S(=O)(=O)Nc1cccc(OC(F)(F)F)c1 [Example 1.239]
2000 to 20000 nM | Cc1cc(NC(=O)N2CCOCC2)ccc1S(=O)(=O)Nc1cccc(C(F)(F)F)c1 [Example 1.148]
750 to 2000 nM | COc1cc(NC(=O)c2ccnn2C)ccc1S(=O)(=O)Nc1ccc(Cl)c(C(F)(F)F)c1 [Example 1.489]
200 to 750 nM | CCOc1cc(NC(=O)[C@H](O)c2ccccc2)ccc1S(=O)(=O)Nc1cccc(OC(F)(F)F)c1 [Example 1.547]
750 to 2000 nM | Cc1cc(NC(=O)[C@@H]2CCCN2)ccc1S(=O)(=O)Nc1cccc(C(F)(F)F)c1 [Example 1.328]
200 to 750 nM | COc1cc(NC(=O)C2CC3C=CC2C3)ccc1S(=O)(=O)Nc1cccc(C(F)(F)F)c1 (centres unmarked) [Example 1.379]
2000 to 20000 nM | Cc1cc(NC(=O)c2cocn2)ccc1S(=O)(=O)Nc1cccc(C(F)(F)F)c1 [Example 1.301]
≤ 200 nM | CCOc1cc(NC(=O)[C@@H](N)C2CCCC2)ccc1S(=O)(=O)Nc1cccc(OC(F)(F)F)c1 [Example 1.463]
200 to 750 nM | COc1cc(NC(=O)c2ccnn2C)ccc1S(=O)(=O)Nc1cccc(OC(F)F)c1 [Example 1.041]
2000 to 20000 nM | COc1cc(NC(=O)C2NC3CCC2C3)ccc1S(=O)(=O)Nc1cccc(C(F)(F)F)c1 (centres unmarked) [Example 1.472]
